Series [1] relates to B16F10, CT26, SNU-475, A431, SKBR3, HeLa, U87MG cancer cells. The experiment in a line: Fluorescence turn-on in cancer cells, single-photon and two-photon fluorescence microscopy. The class given is cell-based, mouse, human. The settings on record: 50 μM, one hour; single-photon ex 405 nm, two-photon ex 880 nm, em 500 to 550 nm. As to the method: More particularly, a total of seven kinds of cancer cells, for example, (a) B16F10 mouse skin cancer cells, (b) CT26 mouse colon cancer cells, (c) SNU-475 human liver cancer cells, (d) A431 human epidermoid carcinoma cells, (e) SKBR3 human breast cancer cells, (f) HeLa human uterine cancer cells, and (g) U87MG human brain tumor cells, were treated with compound 1, and fluorescence images of the cancer cells were observed under a single-photon (confocal) fluorescence microscope (FV1000 model, Olympus) and a two-photon fluorescence microscope (Chameleon Ultra, Coherent, home-built version). Each of the cancer cells were incubated in a minimum essential medium with Earle's balanced salts (MEM/EBSS), a Dulbecco's modified Eagle medium (DMEM), a Roswell Park Memorial Institute (RPMI) medium, a fetal bovine serum (FBS), a penicillin-streptomycin (PS) medium, phosphate buffered saline (PBS), and a trypsin-EDTA culture broth, all of which were commercially available from Hyclone. In this case, the incubation was performed at 37° C. […] When the preparation was completed, a fluorescence image was obtained using a fluorescence microscope.
In FIG. 11, the top panel represents a bright field image, the middle panel represents a single-photon fluorescence microscope image of the cells, and the bottom panel represents a two-photon fluorescence microscope image of the cells.

Series [2] can be described thus: Absorbance and fluorescence in HEPES buffer. The class given is physicochemical. The note with it: 10 mM HEPES buffer, pH 7.5. As to the method: The present inventors measured absorbance and a change in fluorescence of compound 1 under various solvent conditions.
The present inventors measured the absorbance and fluorescence of compound 1 in a buffer (pH 7.5, 10 mM HEPES). A UV/Vis spectrophotometer commercially available from HP was used to analyze the UV/Vis absorption spectra, and a photon technical international fluorescence system commercially available from PTI was used to analyze the fluorescence spectra. In this case, a cell used when compound 1 was put into each type of equipment was a standard quartz cell having a thickness of 1 cm.
In addition to compound 1, compound 5 was shown as a reference material in FIG. 1. In this case, compound 5 is a reference material obtained by introducing an alkyl group into a —OH group of compound 1 to remove an intramolecular hydrogen bond.
The panels (a) and (b) of the graph show the absorbances and fluorescence intensities of compound 5 and compound 1 under a solvent condition (for example, a 10 mM HEPES buffer, pH 7.5).

In series [3] the test system is mouse melanoma skin cancer B16F10 tissues. The experiment in a line: In vivo two-photon microscopy and OCT imaging of mouse ear transplanted with skin cancer tissues. Here is the method: More particularly, a mouse's ear was transplanted with skin cancer tissues (mouse melanoma skin cancer B16F10), and treated with compound 1 to determine that fluorescence was selectively observed in a site of cancer in living mice under a two-photon microscope. 6-month-old, SPF/VAF immunodeficent female nude mice (BALB/c-nude mice, OrientBio corp.) were used as the mice, and the B16F10 cancer cells were prepared in the same manner as in Example 12. Then, the concentrated cancer cells from which a solution was removed using a centrifuge were injected into one ear of each mouse using a syringe. After 4 day, formation of cancer tissues in the mouse's ear was checked, and 10 μL of compound 1 (10 mM) was injected into the one ear of each mouse. […] After 30 minutes, the mice were anesthetized by […], and images were taken of cancer tissues and normal tissues using a two-photon fluorescence microscope. […]
In FIG. 13, each image has a size of 300 μm×300 μm, and a scale bar represents 50 μm. A right bar represents a fluorescence signal intensity. […] The panels a and d show the two-photon fluorescence imaging results from the mice into which nothing is injected, the panels b and e show the two-photon fluorescence imaging results from the mice into which 10 μL of a PBS buffer including no compound 1 is injected, and the panels c and f show the […]

For the compound `CN(C)c1ccc2cc(C=O)c(O)cc2c1` [compound 1, 6-(dimethylamino)-3-hydroxyl-2-naphthaldehyde], the “fluorescence image in cancer cells” value in series [1] is recorded as “bright fluorescence image”. Moreover, in series [2], the fluorescence emission result is reported as “did not emit fluorescence” and the maximum absorbance worked out at 390 nm. Also, the “two-photon fluorescence in cancer tissues versus normal tissues” value in series [3] (nude mice, ear injection of 10 μL of compound 1 (10 mM), imaged after 30 minutes, ex 880 nm) is reported as “strong fluorescence was selectively observed in the cancer tissues”. For the same compound, in series [3] (same conditions as Example 14, cancer tissues), the “3D imaging (two-photon microscopy combined with OCT) fluorescence” value is given as “fluorescence was strongly emitted from the wide tissues”.

For the origin of these results see patent US9958434B2, “Fluorescent probe sensing tyrosine kinase and use thereof” (POSTECH ACADEMY-INDUSTRY FOUNDATION, priority 2013, dated 2018).
